Measurements as given in US20140228440A1, “1-AMINO-ALKYLCYCLOHEXANE DERIVATIVES FOR THE TREATMENT OF INFLAMMATORY SKIN DISEASES” (MERZ PHARMA GmbH & CO. KGaA, priority 2008, published 2014).

What was measured:
[1] = system: ear swelling response induced by croton oil; experiment: Irritant dermatitis mouse model (croton oil); assay type: in vivo, C57BL/6N male mice; conditions: i.p. 5 mg/kg 1 hr before, 3.2 mg/kg 1 hr and 3 hr after irritation; 7 hours and 24 hours
Experimental: In order to further test for antiinflammatory properties, an irritant dermatitis mouse model is used. Induction of an ear swelling response by croton oil is a toxic reaction. This response is a concentration-dependent phenomenon, independent of sensitized lymphocytes.
20 μl of 1% croton oil in acetone is applied on the left ear. Ear swelling is measured after 7 hours and 24 hours. Ear swelling is quantified with a springloaded micrometer. […] An additional group is treated with neramexane (as described above) and croton oil.
Sensitization results are analyzed using student test (comparison between treatment and positive control).

Propionibacterium acnes = experiment: Log reduction assay; assay type: cell-based; conditions: log reduction experiment
Experimental: In order to determine the efficacy of Neramexane against a specific microorganism population (i.e., Propionibacterium acnes), a log reduction assay is performed. The organisms are prepared by inoculating the fluid thioglycolate (FTM). The microorganism is then incubated at 35.2±2.5° C. for 24 hours. The microbial suspension is adjusted to approximately 107 to 108 colony forming units (CFU) per mL and labeled as the stock suspension. […] Then […] is transferred into 11 mL of DI water to prepare a 3.125% solution. This solution is then inoculated with the microorganism and tested at time intervals of 30 seconds, 1 minute, and 5 minutes. One milliliter from each dilution is spread plated in duplicate onto tryptic soy agar with 5% sheep blood. The plates are incubated anaerobically at 35.2±2.5° C. for a minimum of 48 hours. The same procedure is repeated for the Phosphate Buffer Saline control. After the incubation period, all plates are counted to determine the number of microorganisms remaining at each time point. The concentration of each microorganism for the control and product is calculated for each interval. The log reduction is calculated to determine the change (reduction or increase) of the microorganism population relative to a starting inoculum. The minimum required bactericidal concentration is defined as a 3 log reduction from the initial inoculum.

[2] = system: Staphylococcus aureus ATCC 6538; experiment: MIC by the agar dilution method; assay type: cell-based; conditions: pH 5.5
Experimental: (§1) To assess the anti-microbial potency of Neramexane against bacteria strains which are relevant for atopic dermatitis and localized skin infections (“impetigo”), the minimal inhibitory concentration (MIC) against the following bacteria is established:
(§2) The MICs of the samples are determined using the agar dilution method based on DIN 58940. Petri dishes of 5.5 cm diameter are poured with 2.5 ml of freshly prepared Mueller-Hinton agar 2-fold concentrated (Merck company, Cat-No 1.05437), pH 5.5, maintained in liquid form at 50° C., to which the sample dilutions at various concentrations has been added at 50.0 vol.-%.
(§3) Neramexane-Mesylate is tested in the concentration range of 6.25-1*10^−2%. All test solutions are adjusted to pH 5.5.
(§4) For inoculation, 1 μl of the respective germ suspension is placed on the centre of each agar plate. After drying, inoculated plates are incubated at 36.0±2.0° C. The basis for the length of incubation period is the respective growth control cultivated in parallel.
(§5) The test microbe suspension is prepared by inoculating a few individual colonies of the respective bacteria into sterile saline solution until a turbidity corresponding to the McFarland standard 1.0 (approximately 10^8 cfu/ml) is reached. After that, the test microbe suspensions are further diluted 1:10 with saline solution and the microbial counts (see Table 33) are determined by the surface spread method using a spiral plater.
(§6) The agar plates are incubated under the conditions given in Table 34 and subsequently evaluated. The MIC-values as given represent the lowest concentration of the active substance at which there is no macroscopically visible growth. Minimal, barely visible growth or few small individual colonies are evaluated as inhibition.
(§7) The growth of bacteria is indicated for the duplicate plates by a +(i.e., growth) or a −(i.e., no growth), +− indicates weak growth on both plates or growth on one plate and no growth on the other plate. Both bacteria-strains show appropriate growth on the respective control plate not containing any test compound. No influence of the used diluent (Aqua purifacata) is observed. No contamination is observed on the control-plates. In general it has to be considered that values determined by the used method can vary by a factor of 2 (for 1:2 dilutions).

[3] = system: Streptococcus pyogenes ATCC 12344; experiment: MIC by the agar dilution method; assay type: cell-based; conditions: pH 5.5, compared with Staphylococcus aureus
Experimental: as §1, §2, §3, §4, §5, §6, §7

[4] = system: DNFB-induced contact hypersensitivity (ear swelling response); experiment: Contact hypersensitivity (CHS) mouse model; conditions: i.p. 5 mg/kg 1 hr before
[5] = system: Propionibacterium acnes ATCC 11828; experiment: MIC and MBC by the agar dilution method; assay type: cell-based; conditions: pH 5.5
Experimental: (§8) To assess the anti-microbial potency of Neramexane against acne relevant bacterias the minimal inhibitory concentration (MIC) and minimal bactericidal concentration (MBC) against the following bacterias is established: The MICs of the samples are determined using the agar dilution method based on DIN 58940. Petri dishes of 5.5 cm diameter are poured with 2.5 ml of freshly prepared Mueller-Hinton agar (Merck company, Cat-No 1.05437) or Wilkins-Chalgren-Agar (Oxoid company, Cat-No CM643), maintained in liquid form at 50° C., to which the sample dilutions at various concentrations have been added at 50.0 vol.-%. To prepare the starting sample dilutions, a 12.5%, 3.12% suspension of the respective sample solution is prepared with Aqua purificata. From these stock-solutions, further dilutions are prepared with Aqua purificata. All test compounds are adjusted to pH 5.5. For test product no. 1, separate dilutions adjusted to pH 6.0 and pH 7.4 are also prepared. For inoculation, 1 μl of the respective germ suspension is placed on the centre of each agar plate. After drying, inoculated plates are incubated at 36.0±2.0° C. The basis for the length of incubation period is the respective growth control cultivated in parallel. The test microbe suspension is prepared by inoculating a few individual colonies of the respective bacteria into sterile saline solution until a turbidity corresponding to the McFarland standard 1.0 (approximately 10^8 cfu/ml) is reached. After that, the test microbe suspensions are further diluted 1:10 with saline solution and the microbial counts (see Table 21) are determined by the surface spread method using a spiral plater. The agar plates are incubated under the conditions given in Table 22 and subsequently evaluated. The MIC-values as given represent the lowest concentration of the active substance at which there is no macroscopically visible growth. Minimal, barely visible growth or few small individual colonies are evaluated as inhibition. [table] All negative tests of the determination of the minimal bactericial concentration are the basis of verification of remaining germs, the inoculated agar segments are cut and put in Mueller-Hinton-Bouillon (germ 1) or Wilkins-Chalgren-Bouillon (germs 2-4). After an adequate incubation period at 36.0±2.0° C. (as judged from a control without test compound), the tests are checked manually on microbial growth (=turbidity) and the minimal bactericidal concentration is determined. MBC indicates the concentration without marked turbidity. Grown germs are checked for identity to rule out unspecific contaminations. The following results are summarized and tabulated: • a) Results of the Minimal Inhibitory Concentration (MIC)* • b) Results of the Minimal Bactericidal Concentration (MBC) *The MIC is the concentration without macroscopical growth. Scarcely apparent, minimum growth or few single colonies are not considered. The controls must have a respectively good developed growth. There must be no growth on the agar plates for the sterile control. The growth of bacteria is indicated for the duplicate plates by a +(i.e., growth) or a −(i.e., no growth), +− indicates weak growth on both plates or growth on one plate and no growth on the other plate. All bacteria show appropriate growth on the respective control plate not containing any test compound. No influence of the used diluent (Aqua purifacata) was observed. No contamination is observed on the control-plates.

[6] = system: Propionibacterium avidum ATCC 25577; experiment: MIC and MBC by the agar dilution method; assay type: cell-based; conditions: pH 5.5
Experimental: as §8

[7] = system: Propionibacterium granulosum ATCC 11829; experiment: MIC and MBC by the agar dilution method; assay type: cell-based; conditions: pH 5.5
Experimental: as §8

[8] = system: Staphylococcus epidermidis ATCC 12228; experiment: MIC and MBC by the agar dilution method; assay type: cell-based; conditions: pH 5.5
Experimental: as §8

[9] = final concentration 0.002 % (Neramexane-HCl)
[10] = final concentration 0.005 % (Neramexane-HCl)
[11] = final concentration 0.01 % (Neramexane-HCl)
[12] = final concentration 0.02 % (Neramexane-HCl)
[13] = final concentration 0.04 % (Neramexane-HCl)
[14] = final concentration 0.08 % (Neramexane-HCl)
[15] = final concentration 0.16 % (Neramexane-HCl)
[16] = final concentration 0.31 % (Neramexane-HCl)
[17] = final concentration 0.63 % (Neramexane-HCl)
[18] = final concentration 1.56 % (Neramexane-HCl)

CC1(C)CC(C)(C)CC(C)(N)C1 [Neramexane, 1-amino-1,3,3,5,5-pentamethylcyclohexane]
ear swelling response induced by croton oil [1]: reduces the ear swelling response induced by croton oil to some degree
antibacterial activity (Propionibacterium acnes): exhibits antibacterial activity against Propionibacterium acnes
antibacterial activity [2]: exhibits antibacterial activity with respect to Staphylococcus aureus
antibacterial activity [3]: acts even to greater extend against Streptococcus pyogenes
ear swelling response ([4]; 3.2 mg/kg 1 hr and 3 hr after challenge, 24 hours after elicitation): significantly reduces ear swelling response
induction of an immune response (sensitization) ([4]; 3.2 mg/kg 1 hr and 3 hr after sensitization): does not appear to have an impact on the induction of an immune response

CC1(C)CC(C)(C)CC(C)(N)C1.Cl [Neramexane-HCl]
growth of bacteria on duplicate plates (MIC determination) [5, 9]: + +
growth of bacteria on duplicate plates (MIC determination) [5, 10]: + +
growth of bacteria on duplicate plates (MIC determination) [5, 11]: + +
growth of bacteria on duplicate plates (MIC determination) [5, 12]: + +
growth of bacteria on duplicate plates (MIC determination) [5, 13]: + +
growth of bacteria on duplicate plates (MIC determination) [5, 14]: + +
growth of bacteria (MBC determination) [5, 15]: + +
growth of bacteria on duplicate plates (MIC determination) [5, 15]: − −
growth of bacteria (MBC determination) [5, 16]: + +
growth of bacteria on duplicate plates (MIC determination) [5, 16]: − −
growth of bacteria (MBC determination) [5, 17]: + +
growth of bacteria on duplicate plates (MIC determination) [5, 17]: − −
growth of bacteria (MBC determination) [5, 18]: − −
growth of bacteria on duplicate plates (MIC determination) [5, 18]: − −
MBC [5]: 1.56%
MIC [5]: 0.16%
growth of bacteria on duplicate plates (MIC determination) [6, 9]: + +
growth of bacteria on duplicate plates (MIC determination) [6, 10]: + +
growth of bacteria on duplicate plates (MIC determination) [6, 11]: + +
growth of bacteria on duplicate plates (MIC determination) [6, 12]: + +
growth of bacteria on duplicate plates (MIC determination) [6, 13]: + +
growth of bacteria on duplicate plates (MIC determination) [6, 14]: + −
growth of bacteria (MBC determination) [6, 15]: + +
growth of bacteria on duplicate plates (MIC determination) [6, 15]: − −
growth of bacteria (MBC determination) [6, 16]: + +
growth of bacteria on duplicate plates (MIC determination) [6, 16]: − −
growth of bacteria (MBC determination) [6, 17]: + +
growth of bacteria on duplicate plates (MIC determination) [6, 17]: − −
growth of bacteria (MBC determination) [6, 18]: − −
growth of bacteria on duplicate plates (MIC determination) [6, 18]: − −
MBC [6]: 1.56%
MIC [6]: 0.16%
growth of bacteria on duplicate plates (MIC determination) [7, 9]: + +
growth of bacteria on duplicate plates (MIC determination) [7, 10]: + +
growth of bacteria on duplicate plates (MIC determination) [7, 11]: + +
growth of bacteria on duplicate plates (MIC determination) [7, 12]: + +
growth of bacteria on duplicate plates (MIC determination) [7, 13]: + +
growth of bacteria (MBC determination) [7, 14]: + +
growth of bacteria on duplicate plates (MIC determination) [7, 14]: − −
growth of bacteria (MBC determination) [7, 15]: + +
growth of bacteria on duplicate plates (MIC determination) [7, 15]: − −
growth of bacteria (MBC determination) [7, 16]: + +
growth of bacteria on duplicate plates (MIC determination) [7, 16]: − −
growth of bacteria (MBC determination) [7, 17]: − −
growth of bacteria on duplicate plates (MIC determination) [7, 17]: − −
growth of bacteria (MBC determination) [7, 18]: − −
growth of bacteria on duplicate plates (MIC determination) [7, 18]: − −
MBC [7]: 0.63%
MIC [7]: 0.08%
growth of bacteria on duplicate plates (MIC determination) [8, 9]: + +
growth of bacteria on duplicate plates (MIC determination) [8, 10]: + +
growth of bacteria on duplicate plates (MIC determination) [8, 11]: + +
growth of bacteria on duplicate plates (MIC determination) [8, 12]: + +
growth of bacteria on duplicate plates (MIC determination) [8, 13]: + +
growth of bacteria on duplicate plates (MIC determination) [8, 14]: + +
growth of bacteria on duplicate plates (MIC determination) [8, 15]: + +
growth of bacteria on duplicate plates (MIC determination) [8, 16]: + +
growth of bacteria (MBC determination) [8, 17]: + +
growth of bacteria on duplicate plates (MIC determination) [8, 17]: − −
growth of bacteria (MBC determination) [8, 18]: + +
growth of bacteria on duplicate plates (MIC determination) [8, 18]: − −
MBC [8]: >1.56%
MIC [8]: 0.63%
